Reference: patent US11643439B2, “Multi-target compound with anticoagulation and antiplatelet activity, preparation method therefor, and use thereof” (SHAANXI MICOT TECHNOLOGY LIMITED COMPANY, priority 2015, dated 2023)

How the values were obtained:
Assay type in all cases: in vivo, rabbit
[1] = tested on: FeCl3-induced femoral artery thrombosis; experiment: FeCl3-induced femoral artery thrombosis in rabbits, intravenous maintenance administration
Experimental: (§1) 2. Grouping and administration: 10 rabbits were randomly divided into 3 groups, 2 to 3 rabbits per group. 1) Sham operation group (NS): Intravenous injection of the same volume of physiological saline, with the same operation method as above; 2) polypeptide 2 administration group: 8.0 mg/kg+20.0 mg/kg/h; 3) positive control enoxaparin group: 50 U/kg+150 U/kg/h. According to the body weight in kilograms of the rabbits, the first dose of the drug to be tested was dissolved in 2 mL of physiological saline for single bolus injection. The maintaining dose was dissolved in 9 ml of physiological saline, and placed in a double-channel micro-injection pump, which was dripped off within 90 minutes at a dripping speed of […]. The sham operation group was administered with the same volume of physiological saline.
(§2) 3.1 Surgery preparation of rabbits: Rabbits were sent to the laboratory for accommodation for one day, and then screened at first. Blood samples were taken from arteries within ears, which were subjected to blood routine analysis and APTT assay, and the rabbits with normal blood hemateikon and APTT between 16s to 28s were selected for experiments. The rabbits to be tested were fasted with free access to water for the night before the experiment. The rabbits were anesthetized with intravenous injection of 3% sodium pentobarbital solution at 1 ml/kg, fixed in the supine position, and then, the common carotid artery at one side, external jugular vein, femoral artery at one side, femoral vein, and forelimb vein at one side were isolated. The forelimb vein was subjected to intubation for administration; the left femoral vein was subjected to intubation for blood collection to determine the platelet aggregation rate; the femoral artery was used for the establishment of an arterial thrombosis model; the common carotid artery and external jugular vein were used for the establishment of an arterial and venous bypass thrombosis model.
3.2 Arterial thrombosis (AT) model: A small piece of a filter paper (1 cm×1.5 cm) absorbed with 50% FeCl3 solution was applied onto the right femoral artery while administration, below which a small piece of a plastic film (2.5 cm×2.0 cm) was placed to protect surrounding tissues. After 10 minutes, the filter paper was removed, and then, the blood vessels and local tissues were rinsed with warm physiological saline, and the covered blood vessels were cut off. The thrombus which attached to the blood vessel walls was peeled off to be weighed on a tin foil for its wet weight, and then kept overnight at room temperature and weighed for its dry weight.
3.3 Experimental Procedures: The femoral arteries in the […] and both sides in the rabbits were isolated and stabilized for 10 minutes before the administration was started. An AT model was established by covering the femoral artery with a 50% FeCl3 filter paper while administration, and the filter paper was removed after 15 minutes. Observation was continued for 120 min after administration until the experiment was completed.
4.4 Thrombus weight: After the experiment was completed, the segment of the blood vessels in which there had been thrombus formation was cut off, weighed for the wet weight, and then kept overnight at room temperature and weighed for the dry weight. The thrombosis inhibitory rate was calculated with a calculation equation as follows: […]

platelet aggregation = experiment: Platelet aggregation in rabbits, intravenous maintenance administration
Experimental: as §1, §2
4.1 Platelet aggregation rate: At points of 0 min before administration; 30 min. 60 min, 90 min for administration; 60 min, 120 min, 180 min after administration was terminated, 2.7 ml blood samples were taken from the femoral vein, rapidly injected into a centrifuge tube containing 0.3 ml of 3.8% sodium citrate solution, and fully mixed well. The resulted blood samples were centrifuged at 810 rpm (100 g) for 8 min to obtain PRP, and was centrifuged at 3500 rpm (1863 g) for 8 min to obtain PPP which was used to determine platelet aggregation.
Blood samples were taken before administration (0 min), 5 min and 15 min after administration, respectively, to determine the platelet aggregation rate which was used to calculate the inhibitory rate of platelet aggregation with a calculation equation as follows: […]

[2] = tested on: blood coagulation function; experiment: APTT in rabbits, intravenous maintenance administration
Experimental: as §1
(§3) 4.2 Determination of blood coagulation function: Blood samples were taken and the blood function (PT, APTT) was determined at 0 min before administration, at points of 30 min, 60 min, 90 min after administration, and at points of 60 min, 120 min and 180 min after termination of administration, using a platelet-aggregation coagulation factor analyzer. Blood samples were centrifuged at 3510 rpm for 8 min to obtain platelet poor plasma (PPP). Reagent reconstruction and preservation were performed according to the operation requirements of the kit. Immediately after each blood sample was placed into a test cup and then added with PT, TT and APTT reagents, the test was started. After the test was completed, results were recorded.

[3] = tested on: blood coagulation function; experiment: TT in rabbits, intravenous maintenance administration
Experimental: as §1, §3

[4] = iv 8.0 + 20.0 (mg/kg + mg/kg/h)
[5] = iv 8.0 + 20.0 (mg/kg+mg/kg/h), Before administration
[6] = iv 8.0 + 20.0 (mg/kg+mg/kg/h), Termination 120 min
[7] = iv 8.0 + 20.0 (mg/kg+mg/kg/h), Termination 180 min
[8] = iv 50 U + 150 U, Administration 30 min
[9] = iv 50 U + 150 U, Administration 60 min
[10] = iv 50 U + 150 U, Administration 90 min
[11] = iv 50 U + 150 U, Before administration
[12] = iv 50 U + 150 U, Termination 60 min
[13] = iv 50 U + 150 U, Termination 120 min
[14] = iv 50 U + 150 U, Termination 180 min

“D-Phe Pro Arg Pro Gly Gly Gly Gly Asn Gly Asp Phe Glu Glu Ile Pro Glu Glu Tyr Leu Glu Ala Ala Ala Lys Cys Har Gly Asp Trp Pro Cys [Polypeptide 2]” was tested, and the “Thrombus inhibitory rate Dry weight” value [1, 4] was 84.9 ± 2.3%, the “Thrombus inhibitory rate Wet weight” value [1, 4] was 75.6 ± 3.8% and the “Thrombus weight Dry weight” value [1, 4] was 3.2 ± 2.0 mg. The “Thrombus weight Wet weight” value [1, 4] was 14.2 ± 10.2 mg, the “inhibitory rate of platelet aggregation” value (platelet aggregation; iv 8.0 + 20.0 (mg/kg + mg/kg/h), 60 min after termination) was 14.1 ± 3.5% and the “inhibitory rate of platelet aggregation” value (platelet aggregation; iv 8.0 + 20.0 (mg/kg + mg/kg/h), 120 min after termination) was 7.5 ± 1.8%. For the same substance, the “inhibitory rate of platelet aggregation” value (platelet aggregation; iv 8.0 + 20.0 (mg/kg + mg/kg/h), 180 min after termination) was 47.5 ± 2.5%, the “inhibitory rate of platelet aggregation” value (platelet aggregation; iv 8.0 + 20.0 (mg/kg + mg/kg/h), Administration for 30 min) was 61.0 ± 14.1% and the “inhibitory rate of platelet aggregation” value (platelet aggregation; iv 8.0 + 20.0 (mg/kg + mg/kg/h), Administration for 60 min) was 72.1 ± 9.6%. For the same substance, the “inhibitory rate of platelet aggregation” value (platelet aggregation; iv 8.0 + 20.0 (mg/kg + mg/kg/h), Administration for 90 min) was 55.8 ± 7.7%, the APTT ([2]; iv 8.0 + 20.0 (mg/kg+mg/kg/h), Administration 30 min) was 38.0 ± 2.3 S and the APTT ([2]; iv 8.0 + 20.0 (mg/kg+mg/kg/h), Administration 60 min) was 32.5 ± 1.0 S. The APTT ([2]; iv 8.0 + 20.0 (mg/kg+mg/kg/h), Administration 90 min) was 34.1 ± 3.7 S, the APTT [2, 5] was 22.7 ± 1.7 S and the APTT ([2]; iv 8.0 + 20.0 (mg/kg+mg/kg/h), Termination 60 min) was 35.7 ± 14.0 S. It also gave an APTT [2, 6] of 33.2 ± 2.7 S, an APTT [2, 7] of 23.3 ± 1.6 S and a TT [3, 5] of 26.8 ± 15.5 S. The TT [3, 6] was 150.6 ± 3.5 S and the TT [3, 7] was 28.2 ± 1.9 S.

In the case of Enoxaparin, the “Thrombus inhibitory rate Dry weight” value ([1]; iv 50 U + 150 U (U/kg+U/kg/h)) is reported as 10 ± 4.2%, the “Thrombus inhibitory rate Wet weight” value ([1]; iv 50 U + 150 U (U/kg+U/kg/h)) is reported as 40 ± 5.7% and the “Thrombus weight Dry weight” value ([1]; iv 50 U + 150 U (U/kg+U/kg/h)) is reported as 2.3 ± 2.1 mg. For the same substance, the “Thrombus weight Wet weight” value ([1]; iv 50 U + 150 U (U/kg+U/kg/h)) was 3.9 ± 4.0 mg, the “inhibitory rate of platelet aggregation” value (platelet aggregation; iv 50 U + 150 U, 60 min after termination) was 0.00% and the “inhibitory rate of platelet aggregation” value (platelet aggregation; iv 50 U + 150 U, 120 min after termination) was 41.9%. The “inhibitory rate of platelet aggregation” value (platelet aggregation; iv 50 U + 150 U, Administration for 30 min) was 26.7%, the “inhibitory rate of platelet aggregation” value (platelet aggregation; iv 50 U + 150 U, Administration for 60 min) was 0.00% and the “inhibitory rate of platelet aggregation” value (platelet aggregation; iv 50 U + 150 U, Administration for 90 min) was 35.27%. For the same substance, the APTT [2, 8] was 32.4 S, the APTT [2, 9] was 36.2 S and the APTT [2, 10] was 38.3 S. The APTT [2, 11] was 25.7 S, the APTT [2, 12] was 30.5 S and the APTT [2, 13] was 62.1 S. For the same substance, the APTT [2, 14] was 41.6 S, the TT [3, 8] was >180 s and the TT [3, 9] was >180 s. For the same substance, the TT [3, 10] was 18.9 S, the TT [3, 11] was 20.5 S and the TT [3, 12] was 21.0 S. For the same substance, the TT [3, 13] was 29.0 S and the TT [3, 14] was 24.0 S.
